Reference: ChEMBL document CHEMBL3271995, “Antineoplastic agents. 2. Structure-activity studies on N-protected vinyl, 1,2-dibromoethyl, and cyanomethyl esters of several amino acids” (J Med Chem, 1977)
The source made the active and inactive calls. The rule behind the calls is not given here.

Key:
Ehrlich [1] = assay: Antineoplastic activity against mouse EAC allografted in CF1 mouse assessed as ascites volume on day 7 measured at 33 mg/kg (reference value: 4.1 +/- 1.24 mL); type: functional
Ehrlich [2] = assay: Antineoplastic activity against mouse EAC allografted in CF1 mouse assessed as animal survival on day 7 measured at 33 mg/kg; type: functional, organism-based; design: dose 33 mg/kg
Ehrlich [3] = assay: Antineoplastic activity against mouse EAC allografted in CF1 mouse assessed as packed cell volume on day 7 measured at 33 mg/kg (reference value: 32.75 +/- 7.87%); type: functional
Ehrlich [4] = assay: Antineoplastic activity against mouse EAC allografted in CF1 mouse assessed as tumor growth inhibition on day 7 measured at 33 mg/kg; type: functional; conditions: 168 h, read-out: TGI
W256 [5] = assay: Antitumor activity against rat Walker 256 cells allografted in Sprague-Dawley rat assessed as survival time (treated/control) at 2.5 mg/kg/day, ip; type: functional; conditions: route intraperitoneal
W256 [6] = assay: Antitumor activity against rat Walker 256 cells allografted in Sprague-Dawley rat assessed as animal survival days at 2.5 mg/kg/day, ip; type: functional; conditions: route intraperitoneal
P388 [7] = assay: Antitumor activity against mouse P388 cells allografted in DBA/2 mouse assessed as animal survival days at 20 mg/kg/day, ip; type: functional; conditions: route intraperitoneal
[8] = Acute toxicity in CF1 mouse; type: organism-based; conditions: in vivo
P388 [9] = assay: Antitumor activity against mouse P388 cells allografted in DBA/2 mouse assessed as median survival time of treated versus control mice (T/C) at 20 mg/kg/day, ip; type: functional; conditions: route intraperitoneal

In the case of `Cc1ccc(S(=O)(=O)N[C@@H](Cc2ccc(OS(=O)(=O)c3ccc(C)cc3)cc2)C(=O)OCC#N)cc1`, the Activity (Ehrlich [1]) is reported as 0.8 mL, the Activity (Ehrlich [2]) is reported as “Active” and the Activity (Ehrlich [3]) is reported as 6.5%. For the same molecule, the inhibition in vivo at 33 mg/kg (Ehrlich [4]) was 53%.

For `N#CCOC(=O)CCCCCNC(=O)OCc1ccccc1`, the Activity (Ehrlich [1]) was 1 mL, the Activity (Ehrlich [2]) was “Active” and the Activity (Ehrlich [3]) was 41%. It also gave an inhibition in vivo at 33 mg/kg (Ehrlich [4]) of 54%.

For `N[C@@H](Cc1ccc(N(CCCl)CCCl)cc1)C(=O)O`, the Activity (Ehrlich [1]) was 0.1 mL, the Activity (Ehrlich [2]) was “Active” and the Activity (Ehrlich [3]) was 3%. The inhibition in vivo at 33 mg/kg (Ehrlich [4]) was 99%, the T/C (W256 [5]) was 305% and the Survival (W256 [6]) was 23 days.

For `C=COC(=O)[C@H](Cc1ccccc1)NC(=O)c1ccccc1`, the Activity (Ehrlich [1]) was 2.1 mL, the Activity (Ehrlich [2]) was “Active” and the Activity (Ehrlich [3]) was 9.8%. For the same molecule, the inhibition in vivo at 33 mg/kg (Ehrlich [4]) was 56.8%.

For `Cc1ccc(S(=O)(=O)N[C@@H](Cc2ccccc2)C(=O)OCC#N)cc1`, the Activity (Ehrlich [1]) was 0.4 mL, the Activity (Ehrlich [3]) was 3.4% and the inhibition in vivo at 33 mg/kg (Ehrlich [4]) was 97%.

Work on `N#CCOC(=O)CCCNC(=O)OCc1ccccc1` yielded an Activity (Ehrlich [1]) of 0.6 mL, an Activity (Ehrlich [3]) of 48.8% and an inhibition in vivo at 33 mg/kg (Ehrlich [4]) of 71%.

For `N#CCOC(=O)CC[C@H](NC(=O)OCc1ccccc1)C(=O)OCC#N`, the Activity (Ehrlich [1]) was 3.2 mL, the Activity (Ehrlich [2]) was “Active” and the Activity (Ehrlich [3]) was 32%. The inhibition in vivo at 33 mg/kg (Ehrlich [4]) was 35%.

With `N#CCOC(=O)CNC(=O)OCc1ccccc1` the Activity (Ehrlich [1]) was 2.2 mL, the Activity (Ehrlich [2]) was “Active” and the Activity (Ehrlich [3]) was 44.7%. It also gave an inhibition in vivo at 33 mg/kg (Ehrlich [4]) of 29%.

In the case of `O=C(O)[C@@H]1CCCN1C(=O)OCc1ccccc1`, the Activity (Ehrlich [1]) is reported as 1.9 mL, the Activity (Ehrlich [2]) is reported as “Active” and the Activity (Ehrlich [3]) is reported as 32%. It also gave an inhibition in vivo at 33 mg/kg (Ehrlich [4]) of 53%.

With `C#CCOC(=O)[C@H](CC(C)C)NC(=O)OCc1ccccc1` the Activity (Ehrlich [1]) was 0.5 mL, the Activity (Ehrlich [2]) was “Active” and the Activity (Ehrlich [3]) was 23%. For the same molecule, the inhibition in vivo at 33 mg/kg (Ehrlich [4]) was 85%, the Survival (P388 [7]) was 9.1 days and the LD50 [8] was 1650 µmol/kg. For the same molecule, the T/C (P388 [9]) was 112%.

With `N#CCOC(=O)[C@H](Cc1ccccc1)NC(=O)OCc1ccccc1` the Activity (Ehrlich [1]) was 0.2 mL, the Activity (Ehrlich [2]) was “Active” and the Activity (Ehrlich [3]) was 0.1%. It also gave an inhibition in vivo at 33 mg/kg (Ehrlich [4]) of 99.9%.

With `C#CCOC(=O)CCCNC(=O)OCc1ccccc1` the Activity (Ehrlich [1]) was 2.3 mL, the Activity (Ehrlich [2]) was “Active” and the Activity (Ehrlich [3]) was 34.5%. For the same molecule, the inhibition in vivo at 33 mg/kg (Ehrlich [4]) was 20%, the Survival (P388 [7]) was 6.7 days and the T/C (W256 [5]) was 305%. The Survival (W256 [6]) was 23 days and the T/C (P388 [9]) was 83%.

For `C=COC(=O)[C@H](CC(C)C)NC(=O)OCc1ccccc1`, the Activity (Ehrlich [1]) was 0.9 mL, the Activity (Ehrlich [2]) was “Active” and the Activity (Ehrlich [3]) was 38%. For the same molecule, the inhibition in vivo at 33 mg/kg (Ehrlich [4]) was 48%.

In the case of `CC(C)C[C@H](NC(=O)OCc1ccccc1)C(=O)OC(Br)CBr` (stereo partly drawn), the Activity (Ehrlich [1]) is reported as 0.002 mL, the Activity (Ehrlich [2]) is reported as “Active” and the Activity (Ehrlich [3]) is reported as 14%. For the same molecule, the inhibition in vivo at 33 mg/kg (Ehrlich [4]) was 99%, the Survival (P388 [7]) was 9.1 days and the LD50 [8] was 500 µmol/kg. For the same molecule, the T/C (W256 [5]) was 113%, the Survival (W256 [6]) was 8.5 days and the T/C (P388 [9]) was 112%.

With `CC(C)C[C@H](NC(=O)OCc1ccccc1)C(=O)OCC#N` the Activity (Ehrlich [1]) was 2.7 mL, the Activity (Ehrlich [2]) was “Active” and the Activity (Ehrlich [3]) was 38%. The inhibition in vivo at 33 mg/kg (Ehrlich [4]) was 27%.

In the case of `Sc1ncnc2nc[nH]c12` [MERCAPTOPURINE ANHYDROUS], the Activity (Ehrlich [1]) is reported as 0.7 mL, the Activity (Ehrlich [2]) is reported as “Active” and the Activity (Ehrlich [3]) is reported as 0.3%. The inhibition in vivo at 33 mg/kg (Ehrlich [4]) was 99.6%, the Survival (P388 [7]) was 12 days and the T/C (P388 [9]) was 148%.

For `C=COC(=O)CC[C@H](NC(=O)OCc1ccccc1)C(=O)OC=C`, the Activity (Ehrlich [1]) was 0.9 mL, the Activity (Ehrlich [2]) was “Active” and the Activity (Ehrlich [3]) was 37%. For the same molecule, the inhibition in vivo at 33 mg/kg (Ehrlich [4]) was 69% and the LD50 [8] was 1500 µmol/kg.

With `CC=O` the Activity (Ehrlich [1]) was 2 mL, the Activity (Ehrlich [3]) was 56% and the inhibition in vivo at 33 mg/kg (Ehrlich [4]) was 43%.

In the case of `C=COC(=O)CCCCCNC(=O)OCc1ccccc1`, the Activity (Ehrlich [1]) is reported as 0.6 mL, the Activity (Ehrlich [2]) is reported as “Active” and the Activity (Ehrlich [3]) is reported as 36%. It also gave an inhibition in vivo at 33 mg/kg (Ehrlich [4]) of 75%.

`C=COC(=O)[C@H](Cc1ccccc1)NS(=O)(=O)c1ccc(C)cc1` showed an Activity (Ehrlich [1]) of 3.8 mL, an Activity (Ehrlich [3]) of 19.2% and an inhibition in vivo at 33 mg/kg (Ehrlich [4]) of 56.8%.

For `N#CCOC(=O)[C@H](Cc1c[nH]c2ccccc12)NC(=O)OCc1ccccc1`, the Activity (Ehrlich [1]) was 4.3 mL, the Activity (Ehrlich [2]) was “Active” and the Activity (Ehrlich [3]) was 19.7%. It also gave an inhibition in vivo at 33 mg/kg (Ehrlich [4]) of 38%.

In the case of `C=COC(=O)CCCNC(=O)OCc1ccccc1`, the Activity (Ehrlich [1]) is reported as 3.2 mL, the Activity (Ehrlich [2]) is reported as “Active” and the Activity (Ehrlich [3]) is reported as 39.5%. It also gave an inhibition in vivo at 33 mg/kg (Ehrlich [4]) of 6%.

In the case of `C#CCOC(=O)C[C@H](NC(=O)OCc1ccccc1)C(=O)OCC#C`, the Activity (Ehrlich [1]) is reported as 3.7 mL, the Activity (Ehrlich [2]) is reported as “Active” and the Activity (Ehrlich [3]) is reported as 21%. For the same molecule, the inhibition in vivo at 33 mg/kg (Ehrlich [4]) was 31%.

Molecule `N#CCOC(=O)[C@H](CCC(N)=O)NC(=O)OCc1ccccc1` has an Activity (Ehrlich [1]) of 2 mL, an Activity (Ehrlich [3]) of 40% and an inhibition in vivo at 33 mg/kg (Ehrlich [4]) of 51%.
